# Assay results as given in patent US12089595B2, “Pseudomonas strains and their metabolites to control plant diseases” (T3 Bioscience, Inc., priority 2020, dated 2024).
# Entries after “also recorded” stand apart in the source; their conditions may differ. Where two headings read alike, the source gives them in different places.
# Columns and labels:
# E. amylovora = test: Plate diffusion assay in LB plates; assay type: cell-based, Erwinia amylovora
# Description: Two assays were used for the antimicrobial test of 0617-T307 cell broth and metabolites. One is plate diffusion assay and the other one is microplate assay. LB plate was used for the plate diffusion assay of the antimicrobial activity of RejuAgro A containing fractions and cell broths against E. amylovora (Table 3).
# Erwinia amylovora 273 = test: In vitro plate assay of flash fractions; assay type: cell-based; conditions: E. amylovora 273 on 50% LB plate, 2 μL DMSO solution, one day
# Description: The generated fractions were applied for the subsequent plate assays. One mL of each fraction was picked up into a 1.5 mL test tube and vacuum dried by an Eppendorf vacuum concentrator. The dried sample was dissolved in 50 μL DMSO, of which 2 μL was used in the plate assay. Briefly, Erwinia amylovora 273 was streaked onto LB plate to grow at 28° C. incubator and single colony obtained after 24 h was inoculated into 5 mL LB media to allow an overnight growth at 28° C. shaker at 200 rpm. The bacteria were diluted 1:100 in sterile water, of which 225 μL was plated onto 50% LB plate (Tryptone, 5.0 g/L; Yeast extract, 2.5 g/L; NaCl, 5.0 g/L, Agar, 15 g/L). After dried in the biosafety cabinet for 10 mins, the DMSO solution of each fraction was then distributed to its pre-labeled section of the petri dish and allowed to dry for another 10 min. Along with the assay, DMSO and Kasugamycin were used as negative and positive controls, respectively. The plates were then incubated at 28° C. incubator and the inhibitory zone was checked one day later.
# The generated fractions were applied for the subsequent plate assays. One mL of each fractions was picked up into a 1.5 mL test tube and vacuum dried by an Eppendorf vacuum concentrator. The dried sample was dissolved in 50 μL DMSO, of which 2 μL was used in the plate assay. […]
# [1] = test system: X. arboricola pv. Juglandis Xaj219; test: microbe, parasite or virus in culture; assay type: cell-based, Xanthomonas arboricola pv. Juglandis; conditions: Xanthomonas arboricola, read-out: Diameter of the zone of inhibition
# [2] = test system: X. arboricola pv. Juglandis Xaj417; test: microbe, parasite or virus in culture; assay type: cell-based, Xanthomonas arboricola pv. Juglandis; conditions: Xanthomonas arboricola, read-out: Diameter of the zone of inhibition
# R. solanacearum K60 = test: microbe, parasite or virus in culture; assay type: cell-based; conditions: Ralstonia solanacearum, K60, read-out: Diameter of the zone of inhibition
# R. solanacearum Pss = test: microbe, parasite or virus in culture; assay type: cell-based; conditions: Ralstonia solanacearum, read-out: Diameter of the zone of inhibition
# Solubility in solvents = assay type: physicochemical
# Description: Preparative HPLC (Prep-HPLC) purification of the fraction 3840 and 5054 lead to the discovery of 15 mg yellow colored compound RejuAgro A (Rt17.5) and 103.3 mg dark-green colored compound RejuAgro B, respectively. […] The structures of the two compounds have been investigated by High resolution mass spectrometry (HR-MS), infrared (IR), Ultraviolet (UV), 1D and 2D Nuclear magnetic resonance (NMR) as well as X-ray crystal structure analysis.
# [3] = test system: Clavibacter michiganensis subsp. michiganensis Cmm 0317; test: Agar plate spot assay (inhibitory zone); assay type: cell-based; conditions: LB, 2 to 5 days
# Erwinia amylovora 1189 = test: Agar plate spot assay (inhibitory zone); assay type: cell-based; conditions: LB
# Description: (§1) The HPLC isolation and purification of the ethyl acetate extracts of acidified cell broth of Pseudomonas sp. 0617-T307 identified two antimicrobial compounds (Rt22.9 and Rt25.0) from flash fraction T5058 and one antimicrobial compound (Rt18.9) from flash fraction T7882. Two μL of DMSO, Rt18.9, Rt22.9 or Rt25.0 were spotted on agar plates respectively grown with different bacterial strains and the inhibitory zone was further examined (Table 8).
# [4] = test system: Pectobacterium atrosepticum 942; test: Agar plate spot assay (inhibitory zone); assay type: cell-based; conditions: LB
# Description: as §1
# [5] = test system: Pectobacterium carotovorum subsp. brasiliensis 944; test: Agar plate spot assay (inhibitory zone); assay type: cell-based; conditions: P. carotovorum subsp. brasiliensis 944, LB
# Description: as §1
# [6] = test system: Pectobacterium parmentieri UPP163 936; test: Agar plate spot assay (inhibitory zone); assay type: cell-based; conditions: LB
# Description: as §1
# [7] = test system: Pseudomonas savastanoi pv. savastanoi 01-26; test: Agar plate spot assay (inhibitory zone); assay type: cell-based; conditions: P. savastanoi pv. savastanoi 01-26, LB
# Description: as §1
# [8] = test system: Pseudomonas syringae pv syringae 7046; test: Agar plate spot assay (inhibitory zone); assay type: cell-based; conditions: P. syringae pv syringae 7046, LB
# Description: as §1
# [9] = test system: Pseudomonas syringae pv. lachrymans 1188-1; test: Agar plate spot assay (inhibitory zone); assay type: cell-based; conditions: P. syringae pv. lachrymans 1188-1, LB
# Description: as §1
# [10] = test system: Pseudomonas syringae pv. tomato PT30; test: Agar plate spot assay (inhibitory zone); assay type: cell-based; conditions: P. syringae pv. tomato PT30, LB
# Description: as §1
# [11] = test system: Xanthomonas arboricola pv. Juglandis 219; test: Agar plate spot assay (inhibitory zone); assay type: cell-based; conditions: X. arboricola pv. Juglandis 219, NA
# Description: as §1
# [12] = test system: Xanthomonas arboricola pv. Juglandis 417; test: Agar plate spot assay (inhibitory zone); assay type: cell-based; conditions: X. arboricola pv. Juglandis 417, NA
# Description: as §1
# [13] = test system: Xanthomonas axonopodis pv. citri N40-SO5; test: Agar plate spot assay (inhibitory zone); assay type: cell-based; conditions: Xac N40-SO5, NA
# [14] = test system: Ralstonia solanacearum K60; assay type: cell-based; conditions: LB
# [15] = test system: Xanthomonas axonopodis pv. citri-Miami XC2002-00010; test: Agar plate spot assay (inhibitory zone); assay type: cell-based; conditions: Xac-Miami XC2002-00010, NA
# [16] = test system: C. michiganensis subsp. Michiganensis Cmm382; test: Agar plate diffusion assay; assay type: cell-based, Clavibacter michiganensis subsp. michiganensis; conditions: Clavibacter michiganensis, read-out: Diameter of the zone of inhibition
# [17] = test system: C. michiganensis subsp. Michiganensis Cmm0317; test: Agar plate diffusion assay; assay type: cell-based, Clavibacter michiganensis subsp. michiganensis; conditions: Clavibacter michiganensis, read-out: Diameter of the zone of inhibition
# [18] = test system: C. michiganensis subsp. Michiganensis Cmm0690; test: Agar plate diffusion assay; assay type: cell-based, Clavibacter michiganensis subsp. michiganensis; conditions: Clavibacter michiganensis, read-out: Diameter of the zone of inhibition
# Venturia inaequalis = test: Antifungal assay on amended PDA plates; assay type: cell-based; conditions: 200-1000 μg/mL in PDA plate; day 14 (figure)
# Description: The fungus Venturia inaqualis that causes apple scab was maintained on PDA agar in the dark at room temperature (˜24° C.). A mixture of conidia and mycelia suspension (in 0.01 M PBS) was harvested from PDA (Potato dextrose agar). Ten μL the conidia and mycelia suspension were dropped onto biocontrol bacteria, RejuAgro A, or RejuAgro A amended plates. The control was PDA plates without the addition of the biocontrol bacteria or RejuAgro A or B. […]
structure (smiles),measurement,setting,value
"C[C@H]1O[C@H](O[C@H]2[C@H](O)[C@@H](O)[C@@H](O)[C@H](O)[C@@H]2O)[C@@H](N)C[C@@H]1NC(=N)C(=O)O [Kasugamycin, reference compound]",Diameter of the Inhibitory zone,E. amylovora; concentration not given,1.3 cm
same,inhibitory zone / zone of clearance,Erwinia amylovora 273,did show a zone of inhibition
CC1=C(C2=C(C)C(=O)C(=O)NC2=O)C(=O)NC(=O)C1=O [RejuAgro B],zone of inhibition at 2000 µg/mL,"E. amylovora; Erwinia amylovora, 2 mg/mL, read-out: Diameter of the Inhibitory zone",0 mm
same,zone of inhibition at 2000 µg/mL,[1],0 mm
same,zone of inhibition at 2000 µg/mL,[2],0 mm
same,zone of inhibition at 2000 µg/mL,R. solanacearum K60,4 mm
same,zone of inhibition at 2000 µg/mL,R. solanacearum Pss,4 mm
same,solubility in dimethyl sulfoxide (DMSO),Solubility in solvents; DMSO,can be dissolved very well
same,solubility in methanol and chloroform,"Solubility in solvents; methanol, chloroform",does not dissolve well
CC(C)CC(=O)NC(Cc1c[nH]c2ccccc12)C(=O)O (centres unmarked) [Rt22.9],Inhibitory zone (Yes/No),[3]; 2 μL of 10 mg/mL spotted,Yes
same,Inhibitory zone (Yes/No),Erwinia amylovora 1189; 10 mg/mL,No
same,Inhibitory zone (Yes/No),[4]; 10 mg/mL,No
same,Inhibitory zone (Yes/No),[5]; 10 mg/mL,No
same,Inhibitory zone (Yes/No),[6]; 10 mg/mL,No
same,Inhibitory zone (Yes/No),[7]; 10 mg/mL,Yes
same,Inhibitory zone (Yes/No),[8]; 10 mg/mL,Yes
same,Inhibitory zone (Yes/No),[9]; 10 mg/mL,Yes
same,Inhibitory zone (Yes/No),[10]; 10 mg/mL,Yes
same,Inhibitory zone (Yes/No),[11]; 10 mg/mL,No
same,Inhibitory zone (Yes/No),[12]; 10 mg/mL,No
same,Inhibitory zone (Yes/No),[13]; 10 mg/mL,No
same,Inhibitory zone (Yes/No),[14]; 10 mg/mL,Yes
same,Inhibitory zone (Yes/No),[15]; 10 mg/mL,No
CCCCCC(=O)NC(Cc1c[nH]c2ccccc12)C(=O)O (centres unmarked) [Rt25.0],Inhibitory zone (Yes/No),[3]; 2 μL of 5 mg/mL spotted,Yes
same,Inhibitory zone (Yes/No),Erwinia amylovora 1189; 5 mg/mL,No
same,Inhibitory zone (Yes/No),[4]; 5 mg/mL,No
same,Inhibitory zone (Yes/No),[5]; 5 mg/mL,Yes
same,Inhibitory zone (Yes/No),[6]; 5 mg/mL,No
same,Inhibitory zone (Yes/No),[7]; 5 mg/mL,Yes
same,Inhibitory zone (Yes/No),[8]; 5 mg/mL,Yes
same,Inhibitory zone (Yes/No),[9]; 5 mg/mL,Yes
same,Inhibitory zone (Yes/No),[10]; 5 mg/mL,Yes
same,Inhibitory zone (Yes/No),[11]; 5 mg/mL,Yes
same,Inhibitory zone (Yes/No),[12]; 5 mg/mL,No
same,Inhibitory zone (Yes/No),[13]; 5 mg/mL,Yes
same,Inhibitory zone (Yes/No),[14]; 5 mg/mL,Yes
same,Inhibitory zone (Yes/No),[15]; 5 mg/mL,Yes
CN[C@H](CC(C)C)C(=O)N[C@H]1C(=O)N[C@@H](CC(N)=O)C(=O)N[C@H]2C(=O)N[C@H]3C(=O)N[C@H](C(=O)N[C@H](C(=O)O)c4cc(O)cc(O)c4-c4cc3ccc4O)[C@H](O)c3ccc(c(Cl)c3)Oc3cc2cc(c3O[C@@H]2O[C@H](CO)[C@@H](O)[C@H](O)[C@H]2O[C@H]2C[C@](C)(N)[C@H](O)[C@H](C)O2)Oc2ccc(cc2Cl)[C@H]1O [Vancomycin],zone of inhibition at 5000 µg/mL,[16],30 mm
same,zone of inhibition at 5000 µg/mL,[17],30 mm
same,zone of inhibition at 5000 µg/mL,[18],30 mm
"O=S(=O)([O-])[O-].[Cu+2] [copper sulfate, reference compound]",growth of V. inaequalis on PDA plates,Venturia inaequalis,no inhibition; also recorded: can grow
